Data published in patent US20040014047A1, “Antisense modulation of LIM domain kinase 1 expression” (Isis Pharmaceuticals Inc., priority 2002, published 2004).
Strand notation (5' to 3'): a small letter for the sugar, then the base; units joined by * are phosphorothioate-linked, units joined directly phosphodiester-linked; [ ] holds rarer units or linkages, { } end groups; capitals alone tell only the bases. e = 2'-O-(2-methoxyethyl) (MOE); [5mC] = 5-methylcytosine; d = 2'-deoxy (DNA)

System: human LIM domain kinase 1 mRNA
Assay: Antisense inhibition of human LIM domain kinase 1 mRNA levels, quantitative real-time PCR, A549 cells (screen)
Type: cell-based
Settings: for % INHIB (inhibition of human LIM domain kinase 1 mRNA levels): quantitative real-time PCR, averages from two experiments, screening concentration not given (50 nM to 300 nM used herein); for inhibition of human LIM domain kinase 1 expression (text summary of Table 1): real-time PCR, bound stated
Method: When cells reached 70% confluency, they were treated with oligonucleotide. […] Cells were harvested 16-24 hours after oligonucleotide treatment.
Vacuum was applied for 1 minute.
PCR reagents were obtained from Invitrogen Corporation, (Carlsbad, Calif.).
Total RNA is quantified using RiboGreenTM RNA quantification reagent from Molecular Probes.
Probes and primers to human LIM domain kinase 1 were designed to hybridize to a human LIM domain kinase 1 sequence, using published sequence information (GenBank accession number D26309.1, incorporated herein as SEQ ID NO:4). For human LIM domain kinase 1 the PCR primers were: forward primer: […] (SEQ ID NO: 5) reverse primer: […] (SEQ ID NO: 6) and the PCR probe was: FAM-[…]-TAMRA (SEQ ID NO: 7) where FAM is the fluorescent dye and TAMRA is the quencher dye.
All cytidine residues are 5-methylcytidines. […] Data are averages from two experiments in which A549 cells were treated with the oligonucleotides of the present invention. […] If present, “N.D.” indicates “no data”.

206237 (antisense eG*eT*e[5mC]*e[5mC]*eT*dG*d[5mC]*d[5mC]*d[5mC]*d[5mC]*dA*d[5mC]*dA*dG*dA*e[5mC]*eT*e[5mC]*eA*eG) [compound 206237]
% INHIB (inhibition of human LIM domain kinase 1 mRNA levels): 62%

206238 (antisense eG*e[5mC]*eA*eT*eG*dA*dA*dG*dG*d[5mC]*dA*d[5mC]*dT*dA*d[5mC]*e[5mC]*eT*e[5mC]*e[5mC]*e[5mC]) [compound 206238]
% INHIB (inhibition of human LIM domain kinase 1 mRNA levels): 53%

aaaggatggcctcttctcgg (eA*eA*eA*eG*eG*dA*dT*dG*dG*d[5mC]*d[5mC]*dT*d[5mC]*dT*dT*e[5mC]*eT*e[5mC]*eG*eG; antisense) [ISIS 206205]
inhibition of human LIM domain kinase 1 expression (text summary of Table 1): at least 65%

aacctcatgcactcgacggg (eA*eA*e[5mC]*e[5mC]*eT*d[5mC]*dA*dT*dG*d[5mC]*dA*d[5mC]*dT*d[5mC]*dG*eA*e[5mC]*eG*eG*eG; antisense) [ISIS 206161]
inhibition of human LIM domain kinase 1 expression (text summary of Table 1): at least 65%

aagcttcacagttttaatac (eA*eA*eG*e[5mC]*eT*dT*d[5mC]*dA*d[5mC]*dA*dG*dT*dT*dT*dT*eA*eA*eT*eA*e[5mC]; antisense) [ISIS 206217]
inhibition of human LIM domain kinase 1 expression (text summary of Table 1): at least 65%

acatctgggctcatgcagcc (eA*e[5mC]*eA*eT*e[5mC]*dT*dG*dG*dG*d[5mC]*dT*d[5mC]*dA*dT*dG*e[5mC]*eA*eG*e[5mC]*e[5mC]; antisense) [ISIS 206180]
inhibition of human LIM domain kinase 1 expression (text summary of Table 1): at least 65%

actgcctctcgggttcaagc (eA*e[5mC]*eT*eG*e[5mC]*d[5mC]*dT*d[5mC]*dT*d[5mC]*dG*dG*dG*dT*dT*e[5mC]*eA*eA*eG*e[5mC]; antisense) [ISIS 206228]
inhibition of human LIM domain kinase 1 expression (text summary of Table 1): at least 65%

agcttggagtgctccaccag (eA*eG*e[5mC]*eT*eT*dG*dG*dA*dG*dT*dG*d[5mC]*dT*d[5mC]*d[5mC]*eA*e[5mC]*e[5mC]*eA*eG; antisense) [ISIS 206177]
inhibition of human LIM domain kinase 1 expression (text summary of Table 1): at least 65%

agggcctggaggtactggcc (eA*eG*eG*eG*e[5mC]*d[5mC]*dT*dG*dG*dA*dG*dG*dT*dA*d[5mC]*eT*eG*eG*e[5mC]*e[5mC]; antisense) [ISIS 206171]
inhibition of human LIM domain kinase 1 expression (text summary of Table 1): at least 65%

aggtaggccatccctgatgc (eA*eG*eG*eT*eA*dG*dG*d[5mC]*d[5mC]*dA*dT*d[5mC]*d[5mC]*d[5mC]*dT*eG*eA*eT*eG*e[5mC]; antisense) [ISIS 206201]
inhibition of human LIM domain kinase 1 expression (text summary of Table 1): at least 65%

aggtccttgcgctgggaggc (eA*eG*eG*eT*e[5mC]*d[5mC]*dT*dT*dG*d[5mC]*dG*d[5mC]*dT*dG*dG*eG*eA*eG*eG*e[5mC]; antisense) [ISIS 206193]
inhibition of human LIM domain kinase 1 expression (text summary of Table 1): at least 65%

agtacagcttggagtgctcc (eA*eG*eT*eA*e[5mC]*dA*dG*d[5mC]*dT*dT*dG*dG*dA*dG*dT*eG*e[5mC]*eT*e[5mC]*e[5mC]; antisense) [ISIS 206178]
inhibition of human LIM domain kinase 1 expression (text summary of Table 1): at least 65%

agtagtccttcttgcagaag (eA*eG*eT*eA*eG*dT*d[5mC]*d[5mC]*dT*dT*d[5mC]*dT*dT*dG*d[5mC]*eA*eG*eA*eA*eG; antisense) [ISIS 206173]
inhibition of human LIM domain kinase 1 expression (text summary of Table 1): at least 65%

atacgttcttccctccaggt (eA*eT*eA*e[5mC]*eG*dT*dT*d[5mC]*dT*dT*d[5mC]*d[5mC]*d[5mC]*dT*d[5mC]*e[5mC]*eA*eG*eG*eT; antisense) [ISIS 206167]
inhibition of human LIM domain kinase 1 expression (text summary of Table 1): at least 65%

atgctgcagctcctcctggg (eA*eT*eG*e[5mC]*eT*dG*d[5mC]*dA*dG*d[5mC]*dT*d[5mC]*d[5mC]*dT*d[5mC]*e[5mC]*eT*eG*eG*eG; antisense) [ISIS 206232]
inhibition of human LIM domain kinase 1 expression (text summary of Table 1): at least 65%

atttccaagatccggtctcc (eA*eT*eT*eT*e[5mC]*d[5mC]*dA*dA*dG*dA*dT*d[5mC]*d[5mC]*dG*dG*eT*e[5mC]*eT*e[5mC]*e[5mC]; antisense) [ISIS 206184]
inhibition of human LIM domain kinase 1 expression (text summary of Table 1): at least 65%

caggtgcaacaaagtagcgt (e[5mC]*eA*eG*eG*eT*dG*d[5mC]*dA*dA*d[5mC]*dA*dA*dA*dG*dT*eA*eG*e[5mC]*eG*eT; antisense) [ISIS 206164]
inhibition of human LIM domain kinase 1 expression (text summary of Table 1): at least 65%

cattcttgttctcgcggacc (e[5mC]*eA*eT*eT*e[5mC]*dT*dT*dG*dT*dT*d[5mC]*dT*d[5mC]*dG*d[5mC]*eG*eG*eA*e[5mC]*e[5mC]; antisense) [ISIS 206204]
inhibition of human LIM domain kinase 1 expression (text summary of Table 1): at least 65%

ccacctcccgcggaggaatc (e[5mC]*e[5mC]*eA*e[5mC]*e[5mC]*dT*d[5mC]*d[5mC]*d[5mC]*dG*d[5mC]*dG*dG*dA*dG*eG*eA*eA*eT*e[5mC]; antisense) [ISIS 206208]
inhibition of human LIM domain kinase 1 expression (text summary of Table 1): at least 65%

ccaggtgagtgtgcaaggca (e[5mC]*e[5mC]*eA*eG*eG*dT*dG*dA*dG*dT*dG*dT*dG*d[5mC]*dA*eA*eG*eG*e[5mC]*eA; antisense) [ISIS 206230]
inhibition of human LIM domain kinase 1 expression (text summary of Table 1): at least 65%

cctccagggagctatggacc (e[5mC]*e[5mC]*eT*e[5mC]*e[5mC]*dA*dG*dG*dG*dA*dG*d[5mC]*dT*dA*dT*eG*eG*eA*e[5mC]*e[5mC]; antisense) [ISIS 206210]
inhibition of human LIM domain kinase 1 expression (text summary of Table 1): at least 65%

cgccatagcgggcccagtag (e[5mC]*eG*e[5mC]*e[5mC]*eA*dT*dA*dG*d[5mC]*dG*dG*dG*d[5mC]*d[5mC]*d[5mC]*eA*eG*eT*eA*eG; antisense) [ISIS 206176]
inhibition of human LIM domain kinase 1 expression (text summary of Table 1): at least 65%

ctcagacccttgagttactg (e[5mC]*eT*e[5mC]*eA*eG*dA*d[5mC]*d[5mC]*d[5mC]*dT*dT*dG*dA*dG*dT*eT*eA*e[5mC]*eT*eG; antisense) [ISIS 206227]
inhibition of human LIM domain kinase 1 expression (text summary of Table 1): at least 65%

ctctgggccacggcagagag (e[5mC]*eT*e[5mC]*eT*eG*dG*dG*d[5mC]*d[5mC]*dA*d[5mC]*dG*dG*d[5mC]*dA*eG*eA*eG*eA*eG; antisense) [ISIS 206209]
inhibition of human LIM domain kinase 1 expression (text summary of Table 1): at least 65%

ctgctgcagccgtatgaaaa (e[5mC]*eT*eG*e[5mC]*eT*dG*d[5mC]*dA*dG*d[5mC]*d[5mC]*dG*dT*dA*dT*eG*eA*eA*eA*eA; antisense) [ISIS 206162]
inhibition of human LIM domain kinase 1 expression (text summary of Table 1): at least 65%

ctggctgtccatgctcttga (e[5mC]*eT*eG*eG*e[5mC]*dT*dG*dT*d[5mC]*d[5mC]*dA*dT*dG*d[5mC]*dT*e[5mC]*eT*eT*eG*eA; antisense) [ISIS 206200]
inhibition of human LIM domain kinase 1 expression (text summary of Table 1): at least 65%

cttcctctcccatacgttct (e[5mC]*eT*eT*e[5mC]*e[5mC]*dT*d[5mC]*dT*d[5mC]*d[5mC]*d[5mC]*dA*dT*dA*d[5mC]*eG*eT*eT*e[5mC]*eT; antisense) [ISIS 206169]
inhibition of human LIM domain kinase 1 expression (text summary of Table 1): at least 65%

gacaggtttctgccgggcag (eG*eA*e[5mC]*eA*eG*dG*dT*dT*dT*d[5mC]*dT*dG*d[5mC]*d[5mC]*dG*eG*eG*e[5mC]*eA*eG; antisense) [ISIS 206190]
inhibition of human LIM domain kinase 1 expression (text summary of Table 1): at least 65%

gcagctgctgctgcagccgt (eG*e[5mC]*eA*eG*e[5mC]*dT*dG*d[5mC]*dT*dG*d[5mC]*dT*dG*d[5mC]*dA*eG*e[5mC]*e[5mC]*eG*eT; antisense) [ISIS 206215]
inhibition of human LIM domain kinase 1 expression (text summary of Table 1): at least 65%

gcagtgcccgcagtacagct (eG*e[5mC]*eA*eG*eT*dG*d[5mC]*d[5mC]*d[5mC]*dG*d[5mC]*dA*dG*dT*dA*e[5mC]*eA*eG*e[5mC]*eT; antisense) [ISIS 206179]
inhibition of human LIM domain kinase 1 expression (text summary of Table 1): at least 65%

gcagtgcccgctgcaagagc (eG*e[5mC]*eA*eG*eT*dG*d[5mC]*d[5mC]*d[5mC]*dG*d[5mC]*dT*dG*d[5mC]*dA*eA*eG*eA*eG*e[5mC]; antisense) [ISIS 206231]
inhibition of human LIM domain kinase 1 expression (text summary of Table 1): at least 65%

gcatcgcatgaccttcacct (eG*e[5mC]*eA*eT*e[5mC]*dG*d[5mC]*dA*dT*dG*dA*d[5mC]*d[5mC]*dT*dT*e[5mC]*eA*e[5mC]*e[5mC]*eT; antisense) [ISIS 206197]
inhibition of human LIM domain kinase 1 expression (text summary of Table 1): at least 65%

gccattgatttccaagatcc (eG*e[5mC]*e[5mC]*eA*eT*dT*dG*dA*dT*dT*dT*d[5mC]*d[5mC]*dA*dA*eG*eA*eT*e[5mC]*e[5mC]; antisense) [ISIS 206185]
inhibition of human LIM domain kinase 1 expression (text summary of Table 1): at least 65%

gctgctgcagccgtatgaaa (eG*e[5mC]*eT*eG*e[5mC]*dT*dG*d[5mC]*dA*dG*d[5mC]*d[5mC]*dG*dT*dA*eT*eG*eA*eA*eA; antisense) [ISIS 206224]
inhibition of human LIM domain kinase 1 expression (text summary of Table 1): at least 65%

ggaattcttcacatctgggc (eG*eG*eA*eA*eT*dT*d[5mC]*dT*dT*d[5mC]*dA*d[5mC]*dA*dT*d[5mC]*eT*eG*eG*eG*e[5mC]; antisense) [ISIS 206182]
inhibition of human LIM domain kinase 1 expression (text summary of Table 1): at least 65%

ggagtgaaagcacccagctg (eG*eG*eA*eG*eT*dG*dA*dA*dA*dG*d[5mC]*dA*d[5mC]*d[5mC]*d[5mC]*eA*eG*e[5mC]*eT*eG; antisense) [ISIS 206225]
inhibition of human LIM domain kinase 1 expression (text summary of Table 1): at least 65%
